Data as given in article PMC4586518, “Melanin production through novel processing of proopiomelanocortin in the extracellular compartment of the auricular skin of C57BL/6 mice after UV-irradiation” (Scientific Reports, 2015).
Entries after “also recorded” stand apart in the source; their conditions may differ. No end group written: not given here.

How the values were obtained:
mouse melanoma B16 cells = settings: 72 h
Procedure: (B). […] C. […] Each point and line represents the mean ± SEM (n = 4).
(§1) Melanin production activity was performed as follows: B16 cells and normal human melanocytes (TOYOBO. Osaka, Japan) were seeded at the density of 1 × 10[5] cells in 24-well plates and allowed to attach overnight. […] Cells were solubilized in 1 M NaOH at 60°C, and melanin content was measured spectrophotometrically at 475 nm.

MC-1R [1] = tested on: MC-1R; design: method as in 2 sources, ref 23 = [23]; PMID 17317724; doi:10.1096/fj.06-7398com; Rousseau K. et al. Proopiomelanocortin (POMC), the ACTH/melanocortin precursor, is secreted by human epidermal keratinocytes and melanocytes and stimulates melanogenesis . FASEB J 21 , 1844 – 1856 ( 2 ||| ref 34 = [34]; PMID 1556905; doi:10.1016/0024-3205(92)90347-r; Slominski. A. et al. Melanotropic activity of gamma MSH peptides in melanoma cells . Life Sci , 50 , 1103 – 1108 ( 1992 ). 1556905 10.1016/0024-3205(92)90347-r; settings: cited from earlier work
Excerpt: To clarify the mechanism of melanin production after UV-irradiation, we assessed the expression of POMC and POMC-derived peptides after UV-irradiation to the skin of the murine auricle.

MC-1R [2] = settings: cited from earlier work
Excerpt: Melanin plays an important role in protecting skin after UV-irradiation. α-MSH is a major catalyst for melanogenesis in the skin following UV-irradiation. α-MSH-LI and ACTH-LI may be present in culture media of normal keratinocytes, fibroblasts, melanocytes, and their cell extracts. Although POMC and POMC-derived peptides such as ACTH and α-MSH are released from the intermedia of the pituitary, it is unlikely that pituitary secretions contribute to local pigmentation. In the present report, POMC-related peptides were detected in the UV-irradiated auricle ... || Structure-activity analyses of α-MSH have reported information on the essential sequence required for MC-1R binding and melanin production. […] However, Ac-His-Phe-Arg-Trp-NH2 had 400,000-fold less activity (EC50 20 μM) than α-MSH in a frog skin bioassay[31] and approximately 7,000-fold less activity (EC50 1 μM) in a lizard skin bioassay. Furthermore, the N-terminal region of α-MSH is ...

frog skin = tested on: frog skin; design: method as in PMID 2822931; settings: cited from earlier work
lizard skin = tested on: lizard skin; design: method as in PMID 2537778; settings: cited from earlier work
melanin production = settings: bioassay studies on melanin production; cited from earlier work
MC-1R [3] = molecular target: T1, MC-1R (Mus musculus, UniProt Q01727); test: Inhibition of α-MSH- or ACTH(1–8)-induced melanin production in B16 cells by MC-1R antagonist; format: cell-based; settings: dose-dependent effect of antagonist, n = 4
T1 construct: Mouse melanoma cell line B16[43], which express MC-1R and produce melanin; host or cells: B16 mouse melanoma cells (adherent, whole cells)
T1 sequence (Q01727 whole entry): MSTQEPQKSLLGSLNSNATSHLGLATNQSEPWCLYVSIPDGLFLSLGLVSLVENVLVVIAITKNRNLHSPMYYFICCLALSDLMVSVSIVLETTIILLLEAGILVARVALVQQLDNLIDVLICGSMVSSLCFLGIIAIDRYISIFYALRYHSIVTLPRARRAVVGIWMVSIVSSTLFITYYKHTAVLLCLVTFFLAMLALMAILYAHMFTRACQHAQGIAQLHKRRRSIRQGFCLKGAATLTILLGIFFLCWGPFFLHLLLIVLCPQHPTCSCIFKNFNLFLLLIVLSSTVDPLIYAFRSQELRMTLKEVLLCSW
Procedure: Figure 3 ACTH(1–8)-mediated melanin production via the MC-1R. (A). The Radioreceptor assay of ACTH(1–8) (open circle) and α-MSH (closed circle) in mouse melanoma B16 cells. B16 mouse melanoma cells were incubated with [^125I]-α-MSH and 10^−7–10^−11 M ACTH(1–8) or 10^−6–10^−11 M α-MSH. The receptor binding of [^125I]-α-MSH was expressed as 100% in the absence of α-MSH and 0% in the presence of 1 μM α-MSH and calculated as relative activity. (B). ACTH(1–8)- and α-MSH-mediated melanin production. B16 mouse melanoma cells were incubated with 10^−7–10^−11 M ACTH(1–8) (open circle) or 10^−6–10^−11 M α-MSH (closed circle). Melanin levels are expressed as 100% and 0% in the presence of 1 μM α-MSH and absence of α-MSH, respectively, and calculated as the relative activity. C. […] Melanin levels are expressed as 100% and 0% in the presence of 1 μM α-MSH and absence of α-MSH, respectively, and calculated as the relative activity.
as §1, with “nm. Melanin levels were expressed as 100% and 0% in the presence of 1 μM α-MSH and absence of α-MSH, respectively. […]” for “nm.”

## SYSMEHFR [ACTH(1–8)]
Mouse melanoma B16 cells
  EC50: 80 nM

## γ-MSH
MC-1R [1]
  antagonism against MC-1R: competitive antagonist against MC-1R
MC-1R [1]; compared with ACTH(1–8)
  potency when binding to MC-1R: potent when binding to MC-1R, but at low potency levels similar to ACTH(1–8)
MC-1R [2]
  melanin production: increases melanin production

## adrenocorticotropic hormone (SYSMEHFRWGKPVGKKRRPVKVYPNGAEDESAEAFPLEF; Corticotropin; UniProt P01189 138-176, looked up) [ACTH, intermediate form of α-MSH, produced from POMC; 4.5 kDa]
MC-1R [1]; MC1-R
  agonism at MC-1R: known agonists

## Ac-His-Phe-Arg-Trp-NH2
Frog skin; frog skin, read-out: EC50, frog skin bioassay
  EC50: 20000 nM
Frog skin; relative to α-MSH
  fold less activity than α-MSH, frog skin bioassay: 400,000 fold
Lizard skin; lizard skin, read-out: EC50, lizard skin bioassay
  EC50: 1000 nM
Lizard skin; relative to α-MSH
  fold less activity than α-MSH, lizard skin bioassay: approximately 7,000 fold
Melanin production
  melanotropic response: minimal synthetic fragment capable of eliciting a melanotropic response

## ASP(87–132)-NH2: a MC-1R antagonist (TPLSAPCVATRNSCKPPAPACCDPCASCQCRFFRSACSCRVLSLNC-NH2; cysteine pairing not given here; UniProt P42127 87-132, looked up, fragment)
MC-1R [3]; 10^−7 M ACTH(1–8)
  effect on ACTH(1–8)-mediated melanin production: competitively attenuated; also recorded: decreased both ACTH(1–8)- and α-MSH-mediated melanogenesis
MC-1R [3]; 10^−8 M α-MSH
  effect on α-MSH-mediated melanin production: decreased both ACTH(1–8)- and α-MSH-mediated melanogenesis
